Test results: paper PMC2074783, “Metabolism and pharmacokinetics of the anti-tumour agent 2,3,5-trimethyl-6-(3-pyridylmethyl)1,4-benzoquinone (CV-6504)” (British Journal of Cancer, 1996)

Tests used:
MAC13 tumour = assay: Growth of the MAC13 tumour in vivo; parameters: species or system NMRI mice; details: 50 mg kg-1 daily p.o.; for Anti-tumour activity in comparison with the 1-glucuronide and 4-sulphate: MAC13 tumour, difference not significant
Text: (§1) Bridsh Journal of Cancer (1996) 74, 1349-1353 ? 1996 Stockton Press All rights reserved 0007-0920/96 $12.00 Metabolism and pharmacokinetics of the anti-tumour agent 2,3,5- trimethyl-6-(3-pyridylmethyl) 1,4-benzoquinone (CV-6504) H J Hussey and M J Tisdale Pharmaceutical Sciences Institute, Aston University, Birmingham B4 7ET, UK. Summary 2,3,5-Trimethyl-6-(3-pyridylmethyl)1,4-benzoquinone (CV-6504) is an effective inhibitor of the growth of established murine adenocarcinomas (MACs) and is shortly to enter clinical investigation. When administered to mice bearing the MAC16 tumour, CV-6504 rapidly disappeared from the plasma and tissues and there was an accumulation of the sulphate and glucuronide metabolites. […] The concentration of glucuronide and sulphate metabolites in both tumour and liver decreased with time. […] Although the sulphate and glucuronide conjugates of CV-6504 were ineffective inhibitors of the growth of MAC13 cells in vitro at concentrations up to 100 µM, in vivo at a concentration of 50 mg kg-' day-' the conjugates produced a similar anti-tumour effect to CV-6504 at a concentration of 5 mg kg-} day-l. […] Using MAC13 cells ex vivo, CV-6504 inhibited conversion of arachidonic acid to 5-, 12- and 15- hydroxyeicosatetraenoic acids (HETE). The percentage reduction in formation of 12- and 15-HETE exceeded that of 5-HETE. Inhibition of HETE formation may be responsible for the anti-tumour activity of CV-6504. […] Our own studies have identified the 5-lipoxygenase inhibitor (Ohkawa et al., 1991a), 2,3,5-trimethyl-6-(3-pyridyl- methyl)1,4-benzoquinone (CV-6504), as an effective inhibitor of the growth of established murine adenocarcinomas (MAC) in vivo with a therapeutic index of at least 10 (Hussey et al., 1996). […] CV-6504 undergoes rapid reduction by two-electron donating enzymes, such as DT-diaphorase, and the resulting hydroquinone inhibits both 5-lipoxygenase activity and lipid peroxidation on the basis of its antioxidant ability (Ohkawa et al., 199 lb) by reducing the ferric iron in the active site of the enzyme to the ferrous (resting state). Studies on the metabolism of CV-6504 by mice, rats, dogs and monkeys indicate reduction of the quinone ring and subsequent conjugation to yield the 1- and 4-glucuronides and the corresponding sulphates (Takeda Chemical Co., personal communication). […] In the present study the tumour and tissue levels of CV- Correspondence: HJ Hussey Received 4 March 1996; revised 21 May 1996; accepted 29 May 1996 6504 and its glucuronide and sulphate metabolites have been determined after single and consecutive dosing of mice bearing the MAC16 adenocarcinoma. A comparison has also been made between CV-6504 and its glucuronide and sulphate metabolites on tumour growth and metabolism of AA along the lipoxygenase pathways with a view to establishing the mechanism of the anti-tumour effect. Material and methods Pure strain NMRI mice were obtained from our own breeding colony and were fed a rat and mouse breeding diet (Pilsbury's, Birmingham) and water ad libitum. Male animals weighing 20-25 g were transplanted subcutaneously with 1-2 mm3 fragments of the MAC16 or MAC13 tumours by trocar into the right flank. The experiments were initiated when the tumour volume, calculated from the formula: length x (width)2 2 was between 72 and 128 mm3. Tumour dimensions were measured by calipers. Mice bearing the MAC13 tumour were subject to restricted randomisation into groups of nine to receive either CV-6504 (5 mg kg-') or the 1- or 4- glucuronide, or the 1- or 4-sulphate (50 mg kg-'). CV-6504 and the sulphate and glucuronide metabolites were supplied by Takeda Chemical Industries Ltd., Osaka, Japan and were administered p.o. daily in aqueous solution (0.1 ml). Control animals received water alone (0.1 ml). […]

MAC13 cells = assay: Growth of MAC13 cells in vitro after 72 h; assay type: cell-based, murine; details: for Inhibition of the growth of MAC13 cells in vitro: concentrations up to 100 µM, 72 h
Text: as §1, with “calipers.” for “calipers. Mice bearing the MAC13 tumour were subject to restricted randomisation into groups of nine to receive either CV-6504 (5 mg kg-') or the 1- or 4- glucuronide, or the 1- or 4-sulphate (50 mg kg-'). CV-6504 and the sulphate and glucuronide metabolites were supplied by Takeda Chemical Industries Ltd., Osaka, Japan and were administered p.o. daily in aqueous solution (0.1 ml). Control animals received water alone (0.1 ml).”

[1] = Metabolism and tissue levels of [14C]CV-6504 in mice bearing the MAC16 tumour; details: male, NMRI, mouse, in vivo, 24 h
Text: Bridsh Journal of Cancer (1996) 74, 1349-1353 ? 1996 Stockton Press All rights reserved 0007-0920/96 $12.00 Metabolism and pharmacokinetics of the anti-tumour agent 2,3,5- trimethyl-6-(3-pyridylmethyl) 1,4-benzoquinone (CV-6504) H J Hussey and M J Tisdale Pharmaceutical Sciences Institute, Aston University, Birmingham B4 7ET, UK. Summary 2,3,5-Trimethyl-6-(3-pyridylmethyl)1,4-benzoquinone (CV-6504) is an effective inhibitor of the growth of established murine adenocarcinomas (MACs) and is shortly to enter clinical investigation. When administered to mice bearing the MAC16 tumour, CV-6504 rapidly disappeared from the plasma and tissues and there was an accumulation of the sulphate and glucuronide metabolites. […] The concentration of glucuronide and sulphate metabolites in both tumour and liver decreased with time. […] In the present study the tumour and tissue levels of CV- Correspondence: HJ Hussey Received 4 March 1996; revised 21 May 1996; accepted 29 May 1996 6504 and its glucuronide and sulphate metabolites have been determined after single and consecutive dosing of mice bearing the MAC16 adenocarcinoma. […] The experiments were initiated when the tumour volume, calculated from the formula: length x (width)2 2 was between 72 and 128 mm3. Tumour dimensions were measured by calipers. […]

MAC16 cells = assay: Inhibition of the growth of MAC16 cells in vitro; assay type: cell-based, murine; details: Mus musculus, tissue culture
[2] = test system: conversion of arachidonic acid to HETEs in MAC13 cells; assay: Lipoxygenase metabolites of arachidonate in MAC13 tumour cells ex vivo; assay type: cell-based, murine
Text: as §1

Compound: Cc1c(C)c(OS(=O)(=O)O)c(C)c(Cc2cccnc2)c1O [4-sulphate]
- Anti-tumour activity against MAC13 tumour in vivo compared with free CV-6504 at 5 mg kg-1 day-1 orally (MAC13 tumour): similar
- Inhibition of the growth of MAC13 cells in vitro (MAC13 cells): ineffective

Compound: CC1=C(C)C(=O)C(Cc2cccnc2)=C(C)C1=O [CV-6504, 2,3,5-Trimethyl-6-(3-pyridylmethyl)1,4-benzoquinone]
- concentration of free CV-6504 in the liver [1]: 0.24 µM
- concentration of free CV-6504 in the tumour [1]: 3.3 µM
- IC50 (MAC16 cells): 3000 nM
- percentage reduction in formation of 12- and 15-HETE relative to that of 5-HETE ([2]; 10 µM, 30 min): exceeded
- 5-HETE production ([2]; 10 µM, 30 min, [3H]AA): significantly decreased
- 11-HETE production ([2]; 10 µM, 30 min, [3H]AA): significantly decreased
- 12-HETE production ([2]; 10 µM, 30 min, [3H]AA): significantly decreased
- 15-HETE production ([2]; 10 µM, 30 min, [3H]AA): significantly decreased
- total unmetabolised AA ([2]; 10 µM, 30 min, [3H]AA): significantly decreased
- IC50 (MAC13 cells; Mus musculus, MAC13, 72 h, read-out: IC50 for inhibition of growth of MAC13 cells in vitro): 3000 nM

Compound: Cc1c(C)c(OC2OC(C(=O)O)C(O)C(O)C2O)c(Cc2cccnc2)c(C)c1O (stereo not shown) [CV-6504-1-glucuronide]
- Anti-tumour activity against MAC13 tumour in vivo compared with free CV-6504 at 5 mg kg-1 day-1 orally (MAC13 tumour): similar
- Inhibition of the growth of MAC13 cells in vitro (MAC13 cells): ineffective

Compound: Cc1c(C)c(OS(=O)(=O)O)c(Cc2cccnc2)c(C)c1O [CV-6504-1-sulphate]
- 12-HETE production ([2]; 100 µM, 30 min): significantly reduced
- 15-HETE production ([2]; 100 µM, 30 min): significantly reduced
- 11-HETE production ([2]; 100 µM, 1 h): significantly reduced
- 5-HETE production ([2]; 100 µM, 2 h): significantly reduced
- Anti-tumour activity against MAC13 tumour in vivo compared with free CV-6504 at 5 mg kg-1 day-1 orally (MAC13 tumour): similar
- Anti-tumour activity in comparison with the 1-glucuronide and 4-sulphate (MAC13 tumour): slightly reduced
- Inhibition of the growth of MAC13 cells in vitro (MAC13 cells): ineffective

Compound: Cc1c(C)c(OC2OC(C(=O)O)C(O)C(O)C2O)c(C)c(Cc2cccnc2)c1O (stereo not shown) [CV-6504-4-glucuronide]
- 5-HETE production ([2]; 100 µM, 30 min): significantly reduced
- 11-HETE production ([2]; 100 µM, 30 min): significantly reduced
- 12-HETE production ([2]; 100 µM, 30 min): significantly reduced
- 15-HETE production ([2]; 100 µM, 1 h): significantly reduced
- Anti-tumour activity against MAC13 tumour in vivo compared with free CV-6504 at 5 mg kg-1 day-1 orally (MAC13 tumour): similar
- Anti-tumour activity in comparison with the 1-glucuronide and 4-sulphate (MAC13 tumour): slightly reduced
- Inhibition of the growth of MAC13 cells in vitro (MAC13 cells): ineffective
